Data from ChEMBL document CHEMBL1240532, “Spiroindolones, a potent compound class for the treatment of malaria” (Science, 2010).
Activity calls are given as the source filed them. The rule behind the calls is not given here.

Assays:
Plasmodium falciparum [1] = assay type: functional, organism-based; conditions: Dd2, 72 h
Plasmodium falciparum [2] = assay: Antimalarial activity against NITD609-resistant Plasmodium falciparum Dd2 Clone1 bearing P-type ATPase4 I398F and P990R mutations after 72 hrs by SYBR green based fluorescence assay; assay type: functional, organism-based; conditions: Dd2, 72 h
Plasmodium falciparum [3] = assay: Antimalarial activity against NITD609-resistant Plasmodium falciparum Dd2 Clone2 bearing P-type ATPase4 T418N and P990R mutations after 72 hrs by SYBR green based fluorescence assay; assay type: functional, organism-based; conditions: Dd2, 72 h
Plasmodium falciparum [4] = assay: Antimalarial activity against Plasmodium falciparum Dd2 after 72 hrs by SYBR green based fluorescence assay; assay type: functional, organism-based; conditions: Dd2, 72 h
Plasmodium falciparum [5] = assay: microbe, parasite or virus in culture; conditions: Dd2, 72 h
Description: Antimalarial activity against Plasmodium falciparum Dd2 containing attB site inserted in parasite genome and using CAM promoter driven expressing ATP4 D1247Y mutant after 72 hrs by SYBR green based fluorescence assay

Plasmodium falciparum [6] = assay: microbe, parasite or virus in culture; conditions: Dd2, 72 h; remark: listed apart in the source
Description: Antimalarial activity against Plasmodium falciparum Dd2 containing attB site inserted in parasite genome and using CAM promoter driven expressing ATP4 I398F/P990R mutant after 72 hrs by SYBR green based fluorescence assay

Plasmodium falciparum [7] = assay: Antimalarial activity against Plasmodium falciparum assessed as […] by SYBR green based fluorescence assay; assay type: functional, organism-based; conditions: for IC50: Plasmodium falciparum
Plasmodium falciparum [8] = assay: microbe, parasite or virus in culture; conditions: Dd2, 72 h; remark: listed apart in the source
Description: Antimalarial activity against Plasmodium falciparum Dd2 containing attB site inserted in parasite genome and using EF1-alpha promoter driven expressing ATP4 I398F/P990R mutant after 72 hrs by SYBR green based fluorescence assay

Plasmodium falciparum [9] = assay: microbe, parasite or virus in culture; conditions: Dd2, 72 h; remark: listed apart in the source
Description: Antimalarial activity against Plasmodium falciparum Dd2 containing attB site inserted in parasite genome and expressing parental ATP4 after 72 hrs by SYBR green based fluorescence assay

Plasmodium falciparum [10] = assay: microbe, parasite or virus in culture; conditions: Dd2, 72 h; remark: listed apart in the source
Description: Antimalarial activity against Plasmodium falciparum Dd2 containing attB site inserted in parasite genome and using EF1-alpha promoter driven expressing ATP4 D1247Y mutant after 72 hrs by SYBR green based fluorescence assay

Plasmodium falciparum [11] = assay: microbe, parasite or virus in culture; conditions: Dd2, 72 h; remark: listed apart in the source
Description: Antimalarial activity against Plasmodium falciparum Dd2 containing attB site inserted in parasite genome and using EF1-alpha promoter driven expressing wild type ATP4 after 72 hrs by SYBR green based fluorescence assay

Plasmodium berghei [12] = assay: Antimalarial activity against Plasmodium berghei GFP ANKA infected in NMRI mice (Mus musculus) assessed as survival at 10 mg/kg, perorally administered through 7% Tween80/3% Ethanol formulation 24 hrs post infection for 3 days measured 96 hrs post infection; assay type: functional; conditions: route oral
Plasmodium berghei [13] = assay: Antimalarial activity against Plasmodium berghei GFP ANKA infected in NMRI mice (Mus musculus) assessed as reduction in parasitaemia dosed in ETPGS formulation 1 day post infection measured 72 hrs post infection; assay type: functional
Plasmodium berghei [14] = assay: Antimalarial activity against Plasmodium berghei GFP ANKA infected in NMRI mice (Mus musculus) assessed as survival at 30 mg/kg, perorally administered through 7% Tween80/3% Ethanol formulation 24 hrs post infection for 3 days measured 96 hrs post infection; assay type: functional; conditions: route oral
Plasmodium berghei [15] = assay: Antimalarial activity against Plasmodium berghei GFP ANKA infected in NMRI mice (Mus musculus) assessed as reduction in parasitaemia dosed in 7% Tween80/3% ethanol formulation 1 day post infection measured 72 hrs post infection; assay type: functional
Plasmodium berghei [16] = assay: Antimalarial activity against Plasmodium berghei GFP ANKA infected in NMRI mice (Mus musculus) assessed as survival at 10 mg/kg, perorally administered as single dose as single dose 24 hrs post infection for 1 day measured 72 hrs post infection; assay type: functional; conditions: route oral
Plasmodium berghei [17] = assay: Antimalarial activity against Plasmodium berghei GFP ANKA infected in NMRI mice (Mus musculus) assessed as survival at 100 mg/kg, perorally administered as single dose 24 hrs post infection for 1 day measured 72 hrs post infection; assay type: functional; conditions: route oral
Plasmodium berghei [18] = assay: Antimalarial activity against Plasmodium berghei GFP ANKA infected in NMRI mice (Mus musculus) assessed as reduction in parasitaemia at 100 mg/kg, perorally administered as single dose 24 hrs post infection for 1 day measured 72 hrs post infection; assay type: functional; design: scale not given: the % may be the effect or the level left; conditions: route oral
Plasmodium berghei [19] = assay: Antimalarial activity against Plasmodium berghei GFP ANKA infected in NMRI mice (Mus musculus) assessed as reduction in parasitaemia at 30 mg/kg, perorally administered through 7% Tween80/3% Ethanol formulation 24 hrs post infection for 3 days measured 96 hrs post infection; assay type: functional; design: scale not given: the % may be the effect or the level left; conditions: route oral
Plasmodium berghei [20] = assay: Antimalarial activity against Plasmodium berghei GFP ANKA infected in NMRI mice (Mus musculus) assessed as survival at 30 mg/kg, perorally administered as single dose 24 hrs post infection for 1 day measured 72 hrs post infection; assay type: functional; conditions: route oral
Plasmodium berghei [21] = assay: Antimalarial activity against Plasmodium berghei GFP ANKA infected in NMRI mice (Mus musculus) assessed as reduction in parasitaemia at 10 mg/kg, perorally administered as single dose 24 hrs post infection for 1 day measured 72 hrs post infection; assay type: functional; design: scale not given: the % may be the effect or the level left; conditions: route oral
Plasmodium berghei [22] = assay: Antimalarial activity against Plasmodium berghei GFP ANKA infected in NMRI mice (Mus musculus) assessed as reduction in parasitaemia at 30 mg/kg, perorally administered as single dose 24 hrs post infection for 1 day measured 72 hrs post infection; assay type: functional; design: scale not given: the % may be the effect or the level left; conditions: route oral
Plasmodium berghei [23] = assay: Antimalarial activity against Plasmodium berghei GFP ANKA infected in NMRI mice (Mus musculus) assessed as reduction in parasitaemia at 10 mg/kg, perorally administered through 7% Tween80/3% Ethanol formulation 24 hrs post infection for 3 days measured 96 hrs post infection; assay type: functional; design: scale not given: the % may be the effect or the level left; conditions: route oral
Plasmodium falciparum [24] = assay: Antimalarial activity against Plasmodium falciparum 3D7 assessed as parasite growth inhibition at 8 nM after 6 hrs by [3H]hypoxanthin incorporation assay; assay type: functional
Plasmodium falciparum [25] = assay: Inhibition of protein synthesis in NITD609-resistant Plasmodium falciparum Dd2 Clone3 within 1 hrs by [35S]Met/Cys incorporation assay; assay type: functional
Plasmodium falciparum [26] = assay: Inhibition of protein synthesis in NITD609-resistant Plasmodium falciparum Dd2 Clone1 within 1 hrs by [35S]Met/Cys incorporation assay; assay type: functional

## CCc1nc(N)nc(N)c1-c1ccc(Cl)cc1 [PYRIMETHAMINE]
Plasmodium falciparum [1]; read-out: IC50
  IC50: > 20000 nM
Plasmodium falciparum [2]
  IC50: > 20000 nM
Plasmodium falciparum [3]
  IC50: > 20000 nM
Plasmodium falciparum [4]
  IC50: > 20000 nM

## CC(=O)C1=C(O)[C@@H]2[C@H]3c4c[nH]c5cccc(c45)C[C@H]3C(C)(C)N2C1=O [CYCLOPIAZONIC ACID]
Plasmodium falciparum [1]; read-out: IC50
  IC50: 3240 nM
Plasmodium falciparum [2]
  IC50: 3460 nM
Plasmodium falciparum [3]
  IC50: 4160 nM
Plasmodium falciparum [4]
  IC50: 3420 nM

## C[C@@H]1CC[C@H]2[C@@H](C)C(=O)O[C@@H]3O[C@@]4(C)CC[C@@H]1[C@]32OO4 [ARTEMISININ]
Plasmodium falciparum [1]; read-out: IC50
  IC50: 16 nM
Plasmodium falciparum [5]
  IC50: 16.2 nM
Plasmodium falciparum [2]
  IC50: 13 nM
Plasmodium falciparum [6]
  IC50: 18 nM
Plasmodium falciparum [7]
  inhibition (INH): <25%
  IC50: 15 nM
Plasmodium falciparum [8]
  IC50: 17.3 nM
Plasmodium falciparum [9]
  IC50: 15.4 nM
Plasmodium falciparum [10]
  IC50: 19.8 nM
Plasmodium falciparum [11]
  IC50: 17.2 nM
Plasmodium falciparum [3]
  IC50: 18 nM

## C/C=C/[C@H]1O[C@@](O)([C@@H](C)[C@H](O)[C@H](C)[C@H]2OC(=O)/C(OC)=C/C(C)=C/[C@@H](C)[C@@H](O)[C@@H](CC)[C@@H](O)[C@H](C)C/C(C)=C/C=C/[C@@H]2OC)C[C@@H](O[C@H]2C[C@@H](O)[C@H](OC(N)=O)[C@@H](C)O2)[C@@H]1C [CONCANAMYCIN A]
Plasmodium falciparum [1]; read-out: IC50
  IC50: 7 nM
Plasmodium falciparum [2]
  IC50: 7 nM
Plasmodium falciparum [3]
  IC50: 8 nM
Plasmodium falciparum [4]
  IC50: 4.5 nM

## O=C1C(O)=C([C@H]2CC[C@H](c3ccc(Cl)cc3)CC2)C(=O)c2ccccc21 [ATOVAQUONE]
Plasmodium falciparum [1]; read-out: IC50
  IC50: 0.6 nM
Plasmodium falciparum [2]
  IC50: 0.6 nM
Plasmodium falciparum [3]
  IC50: 0.8 nM
Plasmodium falciparum [4]
  IC50: 0.8 nM

## CCN(CC)CCCC(C)Nc1ccnc2cc(Cl)ccc12 (configuration not stated) [CHLOROQUINE]
Plasmodium berghei [12]
  Survival: 15.4 days
Plasmodium berghei [13]
  ED50: 1.9 mg/kg
Plasmodium berghei [14]
  Survival: 18.8 days
Plasmodium berghei [15]
  ED99: 8.4 mg/kg
Plasmodium berghei [16]
  mean survival time at 10 mg/kg: 8 days
Plasmodium berghei [17]
  Survival: 12 days
Plasmodium berghei [18]
  Activity: >99.9%
Plasmodium berghei [19]
  Activity: 98.6%
Plasmodium berghei [20]
  Survival: 8.7 days

## CO[C@H]1O[C@@H]2O[C@@]3(C)CC[C@H]4[C@H](C)CC[C@@H]([C@H]1C)[C@@]24OO3
Plasmodium berghei [12]
  Survival: 13.2 days
Plasmodium berghei [21]
  Activity: 81%
Plasmodium berghei [22]
  Activity: 97%
Plasmodium berghei [16]
  mean survival time at 10 mg/kg: 6.2 days
Plasmodium berghei [17]
  Survival: >7.6 days
Plasmodium berghei [23]
  Activity: 99.7%
Plasmodium falciparum [24]
  inhibition at 0.008 µM: > 90%
Plasmodium berghei [20]
  Survival: 6.9 days

## C[C@@H]1C[C@@H]([C@H](O)CC2CC(=O)NC(=O)C2)C(=O)[C@@H](C)C1 [CYCLOHEXIMIDE]
Plasmodium falciparum [25]
  inhibition: Active
Plasmodium falciparum [1]
  IC50: 301 nM
Plasmodium falciparum [2]
  IC50: 287 nM
Plasmodium falciparum [7]
  IC50: 200 nM
Plasmodium falciparum [26]
  inhibition: Active
Plasmodium falciparum [3]
  IC50: 310 nM
Plasmodium falciparum [4]
  IC50: 320 nM

## C/C=C(/C)C(=O)O[C@H]1C(C)=C2[C@H]([C@@H]1OC(=O)CCCCCCC)[C@@](C)(OC(C)=O)C[C@H](OC(=O)CCC)[C@@]1(O)[C@H]2OC(=O)[C@@]1(C)O [THAPSIGARGIN]
Plasmodium falciparum [1]; read-out: IC50
  IC50: 1050 nM
Plasmodium falciparum [2]
  IC50: 813 nM
Plasmodium falciparum [3]
  IC50: 1110 nM
Plasmodium falciparum [4]
  IC50: 905 nM

## C[C@H]1[C@H](OC(=O)CCC(=O)O)O[C@@H]2O[C@@]3(C)CC[C@H]4[C@H](C)CC[C@@H]1[C@@]24OO3 [ARTESUNATE]
Plasmodium berghei [12]
  Survival: 6.5 days
Plasmodium berghei [21]
  Activity: 70%
Plasmodium berghei [13]
  ED50: 6.2 mg/kg
Plasmodium berghei [22]
  Activity: 89%
Plasmodium berghei [14]
  Survival: 7.2 days
Plasmodium berghei [15]
  ED99: 135 mg/kg
Plasmodium berghei [16]
  mean survival time at 10 mg/kg: 7.3 days
Plasmodium berghei [17]
  Survival: 6.7 days
Plasmodium berghei [19]
  Activity: 98%
Plasmodium berghei [23]
  Activity: 92%

## OC(c1cc(C(F)(F)F)nc2c(C(F)(F)F)cccc12)C1CCCCN1 (configuration not stated) [MEFLOQUINE]
Plasmodium falciparum [1]; read-out: IC50
  IC50: 8 nM
Plasmodium falciparum [5]
  IC50: 11 nM
Plasmodium falciparum [2]
  IC50: 6.7 nM
Plasmodium berghei [12]
  Survival: 13.8 days
Plasmodium berghei [21]
  Activity: 95%
Plasmodium falciparum [6]
  IC50: 12.9 nM
Plasmodium berghei [13]
  ED50: 4.2 mg/kg
Plasmodium berghei [22]
  Activity: 98%
Plasmodium falciparum [7]
  inhibition (INH): <25%
Plasmodium berghei [14]
  Survival: 14 days
Plasmodium falciparum [8]
  IC50: 14.1 nM
Plasmodium berghei [15]
  ED99: 8.6 mg/kg
Plasmodium berghei [16]
  mean survival time at 10 mg/kg: 15.2 days
Plasmodium falciparum [10]
  IC50: 12.5 nM
Plasmodium berghei [17]
  Survival: 28 days
Plasmodium berghei [18]
  Activity: 89%
Plasmodium berghei [19]
  Activity: 99.9%
Plasmodium berghei [23]
  Activity: 99.9%
Plasmodium falciparum [3]
  IC50: 7 nM
Plasmodium berghei [20]
  Survival: 18.2 days

## COc1ccc(C[C@H]2NC[C@H](O)[C@H]2OC(C)=O)cc1 [ANISOMYCIN]
Plasmodium falciparum [25]
  inhibition: Active
Plasmodium falciparum [1]; read-out: IC50
  IC50: 6.4 nM
Plasmodium falciparum [2]
  IC50: 5.8 nM
Plasmodium falciparum [7]
  IC50: 25 nM
Plasmodium falciparum [26]
  inhibition: Active
Plasmodium falciparum [3]
  IC50: 9.2 nM
Plasmodium falciparum [4]
  IC50: 9.1 nM
